Laboratory results as given in patent US6794398B1, “Preventive/remedies for liver diseases” (Mitsubishi Pharma Corporation, priority 1999, dated 2004).

How the values were obtained:
[1] = system: rat with hepatic fibrosis induced by dimethylnitrosamine; assay: Effect on rat with hepatic fibrosis induced by dimethylnitrosamine; assay type: in vivo; conditions: 30 mg/kg orally every day for 4 weeks, male Wistar rats, liver, 5 rats
Procedure: 1% Dimethylnitrosamine (100 μl/100 g rat body weight) was intraperitoneally administered to male Wistar rats for 3 consecutive days per week for 4 weeks (12 times in total) to prepare a hepatic fibrosis model rat. To the Y-27632 administration group, Y-27632 (30 mg/kg) was orally administered every day for 4 weeks from the day when the dimethylnitrosamine administration was started. To the control group, physiological saline was administered. Four weeks later, the liver was removed and the level of fibrogenesis of the tissue, collagen content and hydroxyproline amount were measured.
The level of fibrogenesis was measured as follows. A part of the removed liver was fixed with a formalin solution overnight, and a paraffin embedded piece was prepared and stained by Masson trichrome stain. The stained images were input in a computer through a digital camera (Fujix HC-1000, Fuji Film, Tokyo, Japan) and, using a computer-assisted morphometric analyzer (MacScope, Mitani corporation, Fukui, Japan), the area ratio of the collagen portion stained in bright green was determined as the degree of fibrogenesis.
The amout of tissue collagen was measured as follows according to the method of Shiba et al. (Shiba M, et al. Liver, 1998, Jun; 18(3): 196-204). That is, a part of the removed liver was homogenized with a 33-fold amount (ml/g) of 0.5M aqueous acetic acid solution in a Polytron PCU-2 homogenizer (Kinematica, Luzern, Switzerland). The homogenate was subjected to ultrasonication treatment for 2 min after freeze-thawing. After extraction with an acid, a fraction containing insoluble collagen was heated at 80° C. for 60 minutes to convert the insoluble collagen to water-soluble gelatin. The amount of gelatin was measured with a Sircol collagen assay kit (Biocolor, Belfast, Northern Ireland).
The amount of hydroxyproline was measured as follows. […] The amount of hydroxyproline was measured according to the method of Fujiwara et al. (Fujiwara et al., Anal. Biochem., 1987; 166: 72-8) with a high performance liquid chromatography system (SRL Inc., Tachikawa, Japan).

[2] = system: Hepatic stellate cells (HSC); assay: Effect on cell morphology of hepatic stellate cell; assay type: cell-based, rat; conditions: Y-27632 30 μM, DMEM with 1% FCS, one hour, phase contrast microscope
Procedure: Hepatic stellate cells (HSC) were prepared from the liver of male Wistar rat according to the method of Friedman et al (Friedman S. L, et al., Proc Natl Acad Sci USA 1985; 82: 8681-8685). HSC were cultured in Dulbecco's modified Eagle's medium (DMEM) containing 20% fetal calf serum (FCS) and the cells after 3 to 8 passages were used. HSC to be subjected to the experiment were sown in a dish treated with fibronectin (10 μg/ml), cultured in DMEM medium containing 20% FCS for 24 hours and changed to DMEM medium containing 1% FCS or DMEM medium containing Y-27632 (30 μM) and 1% FCS. One hour later, HSC were fixed with a 3.7% formaldehyde solution and observed under a phase contrast microscope.

[3] = system: Hepatic stellate cells (HSC); assay: Effect on production of collagen I in hepatic stellate cells (ELISA); assay type: cell-based, rat; conditions: Y-27632 30 μM, DMEM without FCS, 48 hours of culture, n=4
Procedure: In the same manner as in Experimental Example 1, HSC were prepared from rat liver and cultured in DMEM medium containing 20% FCS for 8 days and changed to DMEM medium without FCS or DMEM medium containing Y-27632 (30 μM) but without FCS. After 48 hours of culture, the amount of collagen I contained in the supernatant was measured by ELISA (enzyme-linked immunosorbent assay) (Moshage H, et al., Hepatology 1990; 12: 511-518). As a result, the amount was 19.5±3.0 μg/μg DNA for the group without Y-27632 and 8.2±2.3 μg/μg DNA for the group with the addition of Y-27632, showing a significant low level for the group with the addition of Y-27632 (p<0.01, n=4).

C[C@@H](N)[C@H]1CC[C@H](C(=O)Nc2ccncc2)CC1 [Compound Y-27632, (+)-trans-4-(1-aminoethyl)-1-(4-pyridylcarbamoyl)cyclohexane 2HCl·H2O]
content of collagen in the tissue [1]: 601.3±67.7 μg/100 mg-rat liver weight
content of hydroxyproline in the tissue [1]: 29.8±9.1 μmol/g-rat liver weight
level of fibrogenesis (area ratio of collagen portion, Masson trichrome stain) [1]: 6.3±0.7%
cell morphology of hepatic stellate cells [2]: spindle-like shape with dendroidal protrusions (non-active type)
amount of collagen I contained in the supernatant [3]: 8.2±2.3 μg/μg DNA
